In patent publication US20090048229A1, “Methods for promoting wakefulness” (priority 2007, published 2009):
Like-named read-outs stand apart in the source and are kept apart here.

Assays:
BuChE = BuChE (Homo sapiens, UniProt P06276); assay: In vitro screening assay, BuChE inhibition; type: biochemical
From the text: An in vitro screening assay with various conjugates was completed according to the methods described in Ellman G L et al., Biochem Pharmacol., 7:88-95 (1961) and in Nadarajah B, J. Anal. Toxicol., 16:192-193 (1992), both of which are herein incorporated by reference in their entireties. The assay method was completed according to the following: […]

AChE = AChE (Homo sapiens, UniProt P22303); type: biochemical
Sequence of AChE (P22303 32-614): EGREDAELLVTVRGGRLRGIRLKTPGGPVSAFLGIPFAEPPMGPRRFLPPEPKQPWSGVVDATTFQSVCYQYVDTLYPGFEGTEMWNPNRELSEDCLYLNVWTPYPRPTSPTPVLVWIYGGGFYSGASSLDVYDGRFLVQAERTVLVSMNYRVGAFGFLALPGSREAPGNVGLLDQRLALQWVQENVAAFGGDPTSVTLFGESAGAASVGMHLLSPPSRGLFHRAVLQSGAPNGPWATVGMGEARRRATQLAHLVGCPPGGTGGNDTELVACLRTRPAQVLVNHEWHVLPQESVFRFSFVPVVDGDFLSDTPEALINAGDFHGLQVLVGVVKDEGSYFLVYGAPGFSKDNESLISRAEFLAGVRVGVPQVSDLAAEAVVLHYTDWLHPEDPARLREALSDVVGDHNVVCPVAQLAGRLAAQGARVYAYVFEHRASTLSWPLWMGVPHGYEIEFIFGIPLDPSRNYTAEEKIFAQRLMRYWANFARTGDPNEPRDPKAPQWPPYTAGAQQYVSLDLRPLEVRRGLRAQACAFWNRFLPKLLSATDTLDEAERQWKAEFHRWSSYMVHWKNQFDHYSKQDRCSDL

[1] = molecular target: T1, human recombinant acetylcholinesterase (Homo sapiens, UniProt P22303); assay: biochemical; details: for inhibition at 10 µM: read-out: Inhibition of AChE (%) 10 μM
T1 construct: purchased Sigma Chemical Co (St. Louis, Mo.) C1682
T1 sequence (P22303 32-614): as above
Experimental: All reagents employed in this experiment were of analytical grade. Acetylthiocholine iodide and 5,5′-dithiobis-(2-nitro)benzoic acid (DTNB) and human recombinant acetylcholinesterase (C1682) were purchased from Sigma Chemical Co (St. Louis, Mo.).
The enzyme, compound or stigmine and buffer were preincubated for 30 minutes. At the end of the preincubation period, the substrate acetylthiocholine was added. The final assay mixture contained 10 mM Tris-buffer (pH 8), 0.3 mM Acetylthiocholine and 0.33 mM DTNB and 0.08 U/ml enzyme. At least five (5) different concentrations of the compound or stigmine were assayed per IC50 experiment.
Hydrolysis of acetylthiocholine was monitored indirectly by measurement of the formation of the conjugate between thiocholine and DTNB.

butylryl cholinesterase = butylryl cholinesterase (Homo sapiens, UniProt P06276); assay: Inhibition of butyrylcholinesterase; type: biochemical; details: read-out: Inhibition of BuChE (%) 10 μM
Sequence of butylryl cholinesterase (P06276 29-602): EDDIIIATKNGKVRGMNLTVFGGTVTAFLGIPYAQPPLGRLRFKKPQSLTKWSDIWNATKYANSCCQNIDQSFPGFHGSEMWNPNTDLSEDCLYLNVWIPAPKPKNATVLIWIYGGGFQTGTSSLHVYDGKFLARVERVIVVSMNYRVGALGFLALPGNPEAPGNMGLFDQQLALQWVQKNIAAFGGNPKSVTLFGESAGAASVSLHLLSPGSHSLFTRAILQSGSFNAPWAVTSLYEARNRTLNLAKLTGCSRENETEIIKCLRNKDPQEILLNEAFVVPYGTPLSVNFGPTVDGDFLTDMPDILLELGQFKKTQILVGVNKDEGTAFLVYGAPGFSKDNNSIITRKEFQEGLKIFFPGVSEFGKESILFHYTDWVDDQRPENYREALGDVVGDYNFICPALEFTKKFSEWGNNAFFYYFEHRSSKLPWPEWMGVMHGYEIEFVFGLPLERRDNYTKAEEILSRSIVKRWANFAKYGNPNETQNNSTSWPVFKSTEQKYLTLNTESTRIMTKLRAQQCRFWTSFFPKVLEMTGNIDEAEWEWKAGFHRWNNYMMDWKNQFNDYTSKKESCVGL
Experimental: The inhibition of butylryl cholinesterase was determined using methods known in the art e.g., Alcala Molel M. et al. (2003) Characterization of the anticholinesterase activity of two new tacrin-huperzine A hybrids. Neuropharmacology, 44 (6), 749-755.

male Wistar rats = assay: Wake promotion (EEG/EMG sleep-wake, locomotor activity, body temperature); type: in vivo, rat; details: for duration of wakefulness: administered 5 hours after lights on (CT-5), FIG. 2
Experimental: Test compounds in various dose ranges or vehicle were administered to male Wistar rats 5 hours after lights on (CT-5). EEG, EMG, locomotor activity, drink- and food-related activity, and body temperature were concurrently monitored for 30 hr before and after treatment from rats living in separate isolated recording chambers. Sleep-wake discriminations were carried out using SCORE2004™, proprietary real-time hardware and software technology of Hypnion, Inc. (Lexington, Mass.). Comparisons were made between the reference compounds: d-amphetamine, rivastigmine, modafinil, and the following carbamoyl ester test compounds: […]

[2] = system: male CD IGS (Sprague Dawley derived) rats; assay: Induction of hypothermia after subcutaneous administration; type: in vivo, rat; details: for Induction of hypothermia MED (mg/kg s.c.): hypothermia = fall in temperature of >0.5° C.; for fall in body temperature: subcutaneous administration; for Induction of hypothermia MED (mg/kg s.c.) / Hypothermia MED / Hypothermia MED (mg/kg): s.c.; for Hypothermia MED / Hypothermia MED (mg/kg): rats
From the text: Cholinergic agonists cause hypothermia through a central mechanism of action (Freedman et al, 1989. Direct measurement of muscarinic agents in the central nervous system of mice using ex vivo binding. Eur. J. Pharmacol. 174:253-260). […] Since a premise of the present invention is that carbomyl esters would liberate the conjugated amine in the CNS only after inhibition of acetylcholinesterase, induction of hypothermia provides a useful correlation with the acetylcholinesterase inhibition detected in vitro and in vivo.
Hypothermia was defined as a fall in temperature of >0.5° C.
Hypothermia is a marker of CNS penetration for ACHE inhibitors.
(§1) If less soluble, the maximum injection volume was 5 mL/kg.
(§2) Baseline temperatures were taken just before injection.

[3] = Dose range for cholinergic effects / max tolerated dose; type: in vivo, rat; details: s.c., rats
Experimental: as §1, §2

[4] = 30 min preincubation, 25° C., read-out: Inhibition of AChE IC50

Sequence of BuChE (P06276 29-602): as above

SMILES	BuChEI (%) 10 μM (BuChE; 10 μM)	AChEI (%) 10 μM (AChE; 10 μM)	IC50 [1]	AChEI (%) 1 μM (AChE; 1 μM)	Max Tolerated Dose [3]	also measured
C#CCN(C(=O)Oc1ccc2c(c1)[C@]1(C)CCN(C)[C@@H]1N2C)[C@H](C)Cc1ccccc1 [Compound 18, Physo-desmethylselegiline]	8%	37%	–	–	–	–
C[C@@H](c1cccc(OC(=O)N(C)CC[C@H](Oc2cccc3ccccc23)c2cccs2)c1)N(C)C [Compound 10, S-riva-duloxetine]	36%	100%	200 to 500 nM	88%	–	–
C#CCN(C(=O)Oc1cccc([C@H](C)N(C)C)c1)[C@H](C)Cc1ccccc1 [Compound 11, S-riva-desmethylselegiline]	17%	52%	–	13%	–	–
COc1ccccc1CC(C)N(C)C(=O)Oc1cccc([C@H](C)N(C)C)c1 (some centres unmarked) [Compound 15, S-riva-methoxyphenamine]	30%	95%	1100 nM	49%	–	inhibition at 10 µM (butylryl cholinesterase): 30%; inhibition at 10 µM [1]: 95%
C#CCN(C(=O)Oc1cccc([C@@H](C)N(C)C)c1)[C@H](C)Cc1ccccc1 [Compound 17, R-riva-desmethylselegiline]	12%	31%	–	–	–	–
NC(=O)C[S+]([O-])C(c1ccccc1)c1ccccc1 (centres unmarked) [modafinil, reference compound]	–	–	–	–	–	duration of wakefulness (male Wistar rats): increased the duration of wakefulness
C[C@@H](c1cccc(OC(=O)N(C)[C@@H](C)Cc2ccccc2)c1)N(C)C [Compound 13, S-riva-d-methamphetamine]	95%	97%	–	51%	–	duration of wakefulness (male Wistar rats): dose-related increase in wakefulness; Induction of hypothermia MED (mg/kg s.c.) [2]: 10 mg/kg s.c.; fall in body temperature [2]: dose-related-related fall in body temperature; inhibition at 10 µM (butylryl cholinesterase): 95%; BuChEI (%) 1 μM (BuChE; 1 μM): 25%; IC50 [1, 4]: 1100 nM; inhibition at 10 µM [1]: 97%
C[C@@H](c1cccc(OC(=O)N2CCN(C3=Nc4ccccc4Oc4ccc(Cl)cc43)CC2)c1)N(C)C [Compound 3, S-riva-amoxapine]	6%	16%	20900 nM	–	≧100	Hypothermia MED [2]: 10 mg/kg
CC(CC1CCCCC1)N(C)C(=O)Oc1cccc([C@H](C)N(C)C)c1 (some centres unmarked) [Compound 16, S-riva-propylhexedrine]	–	–	900 nM	–	≧100	Hypothermia MED [2]: 10 mg/kg
C[C@@H](c1cccc(OC(=O)N2CC[C@@H](c3ccc(F)cc3)[C@H](COc3ccc4c(c3)OCO4)C2)c1)N(C)C [Compound 9A, S-riva-paroxetine]	4%	69%	9500 nM	9%	–	–
CN1CC[C@@]2(C)c3cc(OC(=O)Nc4ccccc4)ccc3N(C)[C@@H]12 [Phenserine, reference compound]	–	–	–	–	–	BuChEI (%) 10 μM (BuChE): 42%; AChEI (%) 1 μM (AChE): 93%; AChEI (%) 10 μM (AChE): 99%
C[C@@H](c1cccc(OC(=O)N(C)CCC=C2c3ccccc3CCc3ccccc32)c1)N(C)C [Compound 5A, S-riva-nortriptyline]	55%	99%	500 nM	81%	–	BuChEI (%) 1 μM (BuChE; 1 μM): 24%
Cc1ccccc1O[C@H](CCN(C)C(=O)Oc1cccc([C@H](C)N(C)C)c1)c1ccccc1 [Compound 5, S-riva-atomoxetine]	14%	89%	–	29%	≧100	Hypothermia MED (mg/kg) [2]: ≦1 mg/kg
C[C@@H](Cc1ccccc1)NC(=O)Oc1ccc2c(c1)[C@]1(C)CCN(C)[C@@H]1N2C [Compound 14, Physo-d-amphetamine]	28%	94%	–	45%	–	inhibition at 10 µM (butylryl cholinesterase): 28%; inhibition at 10 µM [1]: 94%
C[C@@H](c1cccc(OC(=O)N(C)CCCN2c3ccccc3CCc3ccccc32)c1)N(C)C [Compound 4, S-riva-desipramine]	60%	99%	200 nM	91%	≧100	Hypothermia MED [2]: 3 mg/kg; BuChEI (%) 1 μM (BuChE; 1 μM): 16%
C[C@@H](c1cccc(OC(=O)N(C)CCC(Oc2ccc(C(F)(F)F)cc2)c2ccccc2)c1)N(C)C (some centres unmarked) [Compound 7A, S-riva-fluoxetine]	15%	76%	4800 nM	11%	≧100	Hypothermia MED [2]: 3 mg/kg
CN[C@@H](C)Cc1ccccc1 [d-methamphetamine, reference compound]	–	–	–	–	–	locomotor hyperactivity / stimulant activity (male Wistar rats; FIG. 5): locomotor hyperactivity
C[C@@H](c1cccc(OC(=O)N(C)CCCC2c3ccccc3C=Cc3ccccc32)c1)N(C)C [Compound 6, S-riva-protriptyline]	53%	99%	500 nM	81%	>100	Hypothermia MED [2]: 100 mg/kg; BuChEI (%) 1 μM (BuChE; 1 μM): 16%
COCCCC/C(=N\OCCNC(=O)Oc1cccc([C@H](C)N(C)C)c1)c1ccc(C(F)(F)F)cc1 [Compound 8, S-riva-fluvoxamine]	6%	76%	6100 nM	17%	–	–
C[C@@H](Cc1ccccc1)NC(=O)Oc1cccc([C@H](C)N(C)C)c1 [Compound 20, S-riva-d-amphetamine]	20%	76%	–	35%	–	duration of wakefulness (male Wistar rats): dose-related increase in wakefulness; Induction of hypothermia MED (mg/kg s.c.) [2]: ≦1 mg/kg s.c.; fall in body temperature [2]: dose-related-related fall in body temperature; inhibition at 10 µM (butylryl cholinesterase): 20%; IC50 [1, 4]: 3100 nM; inhibition at 10 µM [1]: 76%
C[C@H](N)Cc1ccccc1 [d-amphetamine, reference compound]	–	–	–	–	–	effect on body temperature (male Wistar rats; FIG. 4): increase in body temperature (hyperthermia); duration of wakefulness (male Wistar rats): increased the duration of wakefulness
CCN(C)C(=O)Oc1cccc([C@H](C)N(C)C)c1 [Compound 1, S-rivastigmine, reference compound]	–	–	–	–	10	rebound hypersomnolence (male Wistar rats; FIG. 3): rebound hypersomnolence; duration of wakefulness (male Wistar rats): increased wakefulness; Hypothermia MED (mg/kg) [2]: ≦0.1 mg/kg; Induction of hypothermia MED (mg/kg s.c.) [2]: ≦0.1 mg/kg s.c.; fall in body temperature [2]: dose-related-related fall in body temperature; inhibition at 10 µM (butylryl cholinesterase): 100%; BuChEI (%) 1 μM (BuChE): 45%; BuChEI (%) 10 μM (BuChE): 100%
C[C@@H](c1cccc(OC(=O)N[C@H]2C[C@@H]2c2ccccc2)c1)N(C)C (stereo in doubt) [Compound 2, S-riva-tranylcypromine]	67%	97%	200 nM	84%	30	Hypothermia MED [2]: 10 mg/kg; BuChEI (%) 1 μM (BuChE; 1 μM): 23%
